Laboratory results: publication PMC5384962, “First-in-human studies of seletalisib, an orally bioavailable small-molecule PI3Kδ inhibitor for the treatment of immune and inflammatory diseases” (European Journal of Clinical Pharmacology, 2017)

Test: Study-2 safety/tolerability (adverse events)
Procedure: In total, 60 subjects were enrolled into five dose cohorts (n = 12 in each), and subjects were randomised (3:1) to receive seletalisib or placebo. Study-2 included initial dose cohorts of 30, 60 and 90 mg once-daily plus additional dose cohorts of 30 mg twice-daily and 45 mg once-daily.
Adverse events (AEs), serious AEs (SAEs), routine clinical laboratory parameters, vital signs and ECGs were monitored throughout the study periods and for ≤7 days post-administration of final-dose of seletalisib/placebo. The potential for seletalisib to cause gastrointestinal (GI) tract adverse effects was assessed by careful monitoring of subject reports of AEs such as abdominal pain, bloating, nausea, vomiting and alteration of bowel function (e.g. diarrhoea, constipation or bleeding). A formal safety review was conducted before each dose escalation. In Study-1 (Part-B), the potential for seletalisib to interfere with insulin signalling was assessed by monitoring blood glucose and C-peptide levels as part of the standard laboratory tests and by performance of oral glucose tolerance tests, measuring glucose and C-peptide levels, pre-dose and during exposure in all cohorts.
In each study, the primary population for analysis was the full analysis set (FAS), which comprised all subjects who had received ≥1 dose of seletalisib or placebo. PK analysis was performed on the PK per-protocol set (PK-PPS), which was a subset of the FAS consisting of subjects with no important protocol deviations likely to affect PK variables who received seletalisib; subjects who received placebo were excluded from this analysis. In Study-1 and Study-2, sample sizes of 57 and 36 subjects, respectively, were considered sufficient to permit assessment of the safety and tolerability of seletalisib and were not based on statistical considerations of power and sample size. In Study-1 (Part-A), a panel size of 15 subjects was selected to achieve good estimates of the PK/PD parameters.

With `[O-][n+]1cccc(-c2nc3c(Cl)cccc3cc2[C@@H](Nc2ncnc3cccnc23)C(F)(F)F)c1` [Seletalisib, seletalisib] the Deaths (Study-2, 30 mg BID) was 0 n (%), the Deaths (Study-2, 30 mg QD) was 0 n (%) and the Deaths (Study-2, 45 mg QD) was 0 n (%). The Deaths (Study-2, 60 mg QD) was 0 n (%), the Deaths (Study-2, 90 mg QD) was 0 n (%) and the Deaths (Study-2, seletalisib total) was 0 n (%). The “Any AE, number of events […]” value (human, in vivo) was 169, the “number of rash-related AEs” value (human, in vivo) was 18 and the “number of subjects with AEs relating to GI disturbance” value (human, in vivo) was 10. For the same molecule, the “number of subjects with rash-related AEs” value (human, in vivo) was 12, the “subjects who discontinued the study due to an AE” value (human, in vivo) was 13.3% and the “subjects who experienced an AE” value (human, in vivo) was 71.1%. For the same molecule, the “subjects with SAEs” value (human, in vivo) was 4.4%, the subjects with headache (human, in vivo) was 24.4% and the subjects with rash (human, in vivo) was 24.4%. The Abdominal discomfort (human, in vivo, 14 days) was 2 (4.4) n (%), the Abdominal pain (human, in vivo, 14 days) was 5 (11.1) n (%) and the “Any AE” value (human, in vivo, 14 days) was 32 (71.1) n (%). The “Dermatitis, contact” value (human, in vivo, 14 days) was 4 (8.9) n (%), the Diarrhoea (human, in vivo, 14 days) was 3 (6.7) n (%) and the “Discontinuations due to AEs” value (human, in vivo, 14 days) was 6 (13.3) n (%). For the same molecule, the “Discontinuations due to AEs, number of events […]” value (human, in vivo, 14 days) was 6, the Dizziness (human, in vivo, 14 days) was 5 (11.1) n (%) and the “Drug-related AEs” value (human, in vivo, 14 days) was 24 (53.3) n (%). For the same molecule, the “Drug-related AEs, number of events […]” value (human, in vivo, 14 days) was 136, the Dry mouth (human, in vivo, 14 days) was 2 (4.4) n (%) and the Dysgeusia (human, in vivo, 14 days) was 5 (11.1) n (%). For the same molecule, the Furuncle (human, in vivo, 14 days) was 2 (4.4) n (%), the Headache (human, in vivo, 14 days) was 11 (24.4) n (%) and the Initial insomnia (human, in vivo, 14 days) was 2 (4.4) n (%). For the same molecule, the Nausea (human, in vivo, 14 days) was 6 (13.3) n (%), the Oropharyngeal pain (human, in vivo, 14 days) was 6 (13.3) n (%) and the Rash (human, in vivo, 14 days) was 11 (24.4) n (%). The “Rash, generalised” value (human, in vivo, 14 days) was 3 (6.7) n (%), the Regurgitation (human, in vivo, 14 days) was 2 (4.4) n (%) and the “Serious AEs” value (human, in vivo, 14 days) was 2 (4.4) n (%). For the same molecule, the “Serious AEs, number of events […]” value (human, in vivo, 14 days) was 2, the “Severe AEs” value (human, in vivo, 14 days) was 3 (6.7) n (%) and the “Severe AEs, number of events […]” value (human, in vivo, 14 days) was 3. The Somnolence (human, in vivo, 14 days) was 2 (4.4) n (%), the Toothache (human, in vivo, 14 days) was 2 (4.4) n (%) and the Hypoaesthesia oral (human, in vivo, po, 14 days) was 2 (4.4) n (%). The “number of AEs relating to GI disturbance” value (in vivo) was “Thirty-two” and the “number of infection-related AEs” value (in vivo) was “four”.
